One data set is described as follows: RP, Waters ACQUITY UPLC HSS T3, 100 × 2.1 mm, 1.8 µm, 30 °C, 0.4 mL/min, estimated dead time 0.55 min; A: water + 0.1% formic acid, pH 3; B: acetonitrile + 0.1% formic acid, pH 3; gradient (min/%B) 0/0 2/0 15/100 22/100 22.1/0 26/0. Particulars: stereoisomer not certain.
In the case of `O=C(O)c1cc(O)ccc1O` [Gentisic acid], the LC retention time is 8.3 min.
With `O=c1c(O)c(-c2ccc(O)c(O)c2)oc2cc(O)ccc12` [Fisetin], the LC retention time is 10.2 min.
The same measure, in the same setting: the value for `O=c1c(-c2ccc(O)cc2)coc2cc(O)ccc12` [Daidzein] was 10.7 min.

Another data set is described as follows: RP, Waters ACQUITY UPLC BEH Shield RP18, 150 × 2.1 mm, 1.7 µm, 40 °C, 0.4 mL/min, estimated dead time 0.83 min; A: water + 0.1% formic acid, pH 3; B: acetonitrile + 0.1% formic acid, pH 3; gradient (min/%B) 0/0 30/50 31/100 37/100 37.1/0. The conditions noted are these: stereoisomer not certain.
As to `O=C(O)c1cc(O)ccc1O` [Gentisic acid], the LC retention time is 6.28 min.
Still for that read-out and setting: under `O=c1c(-c2ccc(O)cc2)coc2cc(O)ccc12` [Daidzein] stands 17.9 min; under `O=C(O)C=Cc1ccccc1O` [o-Coumaric acid], 12.7 min.
Consider `O=C(O)C=Cc1ccccc1` [Cinnamic acid-trans], for which the LC retention time was 16.2 min.
The same measure, in the same setting: under `O=C(O)C1OC(Oc2c(-c3ccc(O)c(O)c3)oc3cc(O)cc(O)c3c2=O)C(O)C(O)C1O` (stereo unspecified) [Quercetin-3-O-glucuronide] stands 13.7 min.

A short description of another data set: RP, Merck Supelco SUPELCOSIL LC-C18, 250 × 4.6 mm, 5 µm, 40 °C, 1 mL/min, estimated dead time 2.6 min; A: water + 0.1% trifluoroacetic acid, pH 2; B: acetonitrile + 0.1% trifluoroacetic acid, pH 2; gradient (min/%B) 0/5 45/35 47/75 49/35 50/5. Particulars: stereoisomer not certain.
Regarding `COc1cc(C(=O)O)cc(OC)c1O` [Syringic acid], the LC retention time was 15.5 min.
As for `O=C(O)c1cc(O)ccc1O` [Gentisic acid], the LC retention time is 12.5 min.
`O=C(C=Cc1ccc(O)c(O)c1)OC1C(O)CC(O)(C(=O)O)CC1O` (stereo unspecified) [Cryptochlorogenic acid]: the LC retention time is 14.1 min.
As for `O=c1c(O)c(-c2ccc(O)c(O)c2)oc2cc(O)ccc12` [Fisetin], the LC retention time is 30.9 min.
The same measure, in the same setting: the value for `O=C(OC1Cc2c(O)cc(O)cc2OC1c1cc(O)c(O)c(O)c1)c1cc(O)c(O)c(O)c1` (single isomer, unassigned; (-)) [(-)-Epigallocatechin gallate] was 16.9 min; that for `O=c1c(-c2ccc(O)cc2)coc2cc(O)ccc12` [Daidzein] was 34.6 min; that for `O=C(O)C=Cc1ccccc1O` [o-Coumaric acid] was 25.9 min.
In the case of `O=C(O)C=Cc1ccccc1` [Cinnamic acid-trans], the LC retention time was 35.6 min.
Still for that read-out and setting: the value for `COc1cc(-c2[o+]c3cc(O)cc(O)c3cc2OC2OC(CO)C(O)C(O)C2O)cc(O)c1O` (stereo unspecified) [Petunidin-3-O-glucoside] was 22.3 min; that for `CC1OC(Oc2c(-c3ccc(O)c(O)c3)oc3cc(O)cc(O)c3c2=O)C(O)C(O)C1O` (stereo unspecified) [Quercitrin] was 29.4 min.
Consider `O=c1cc(-c2ccccc2)oc2cc(O)cc(O)c12` [Chrysin], for which the LC retention time is 39.4 min.
The same measure, in the same setting: under `O=C(O)C1OC(Oc2c(-c3ccc(O)c(O)c3)oc3cc(O)cc(O)c3c2=O)C(O)C(O)C1O` (stereo unspecified) [Quercetin-3-O-glucuronide] stands 26.2 min.

A further data set is described as follows: RP, Agilent ZORBAX Eclipse XDB-C18, 100 × 2.1 mm, 1.8 µm, 50 °C, 0.4 mL/min, estimated dead time 0.55 min; A: water + 0.1% formic acid, pH 3; B: methanol + 0.1% formic acid, pH 3; gradient (min/%B) 0/2 10/100 14.5/100 14.51/2 16.5/2. The conditions noted are these: stereoisomer not certain.
Consider `O=C(O)c1cc(O)ccc1O` [Gentisic acid], for which the LC retention time was 2.85 min.
Same read-out and setting: under `O=C(O)C=Cc1ccccc1` [Cinnamic acid-trans] stands 6.27 min.

The next data set is described as follows: RP, Phenomenex Kinetex EVO C18, 100 × 2.1 mm, 2.6 µm, 40 °C, 0.4 mL/min, estimated dead time 0.55 min; A: water + 0.2% formic acid; B: acetonitrile + 0.2% formic acid; gradient (min/%B) 0/5 0.5/5 7/95 8/95 8.5/5 12/5. The conditions noted are these: stereoisomer not certain.
For the compound `O=C(OC1Cc2c(O)cc(O)cc2OC1c1cc(O)c(O)c(O)c1)c1cc(O)c(O)c(O)c1` (single isomer, unassigned; (-)) [(-)-Epigallocatechin gallate], the LC retention time was 4.38 min.
`O=C(O)C1OC(Oc2c(-c3ccc(O)c(O)c3)oc3cc(O)cc(O)c3c2=O)C(O)C(O)C1O` (stereo unspecified) [Quercetin-3-O-glucuronide]: the LC retention time was 4.92 min.

Another data set can be described thus: RP, Merck LiChrospher RP-18, 250 × 4 mm, 5 µm, 35 °C, 0.3 mL/min, estimated dead time 6.7 min; A: water + 0.5% formic acid; B: acetonitrile + 0.5% formic acid; gradient (min/%B) 0/5 10/5 30/15 45/20 65/20 95/54 110/63 115/5 135/5. Particulars: stereoisomer not certain.
With `O=C(O)C=Cc1ccccc1O` [o-Coumaric acid], the LC retention time was 74.4 min.
As to `O=C(O)C=Cc1ccccc1` [Cinnamic acid-trans], the LC retention time is 92.9 min.

A short description of a further data set: RP, Waters ACQUITY UPLC BEH C18, 100 × 2.1 mm, 1.7 µm, 65 °C, 0.4 mL/min, estimated dead time 0.55 min; A: water + 0.1% formic acid, pH 3; B: 80% acetonitrile + 20% acetone + 0.1% formic acid, pH 3; gradient (min/%B) 0/0 5/100 5.5/0 6/0. Particulars: stereoisomer not certain.
Take `COc1cc(C(=O)O)cc(OC)c1O` [Syringic acid]: the LC retention time is 1.8 min.
`O=c1c(-c2ccc(O)cc2)coc2cc(O)ccc12` [Daidzein]: the LC retention time is 2.53 min.
With `O=C(O)C=Cc1ccccc1` [Cinnamic acid-trans], the LC retention time was 2.79 min.

A further data set in a line: RP, Agilent ZORBAX RRHD Eclipse Plus C18, 50 × 2.1 mm, 1.8 µm, 30 °C, 0.4 mL/min, estimated dead time 0.28 min; A: water + 0.1% formic acid, pH 3; B: acetonitrile + 0.1% formic acid, pH 3; gradient (min/%B) 0/1 5/10 8/25 9.1/99 10/99 12/1. Particulars: stereoisomer not certain.
Consider `O=C(O)c1cc(O)ccc1O` [Gentisic acid], for which the LC retention time is 4.25 min.
For the compound `O=C(O)C=Cc1ccccc1O` [o-Coumaric acid], the LC retention time was 8.32 min.
Same read-out and setting: the value for `O=C(O)C=Cc1ccccc1` [Cinnamic acid-trans] was 9.09 min; that for `O=C(O)C1OC(Oc2c(-c3ccc(O)c(O)c3)oc3cc(O)cc(O)c3c2=O)C(O)C(O)C1O` (stereo unspecified) [Quercetin-3-O-glucuronide] was 7.9 min.

A further data set is described as follows: RP, 150 × 2.1 mm, 2.6 µm, 40 °C, 0.35 mL/min, estimated dead time 0.94 min; A: water + 0.1% formic acid, pH 3; B: acetonitrile + 0.1% formic acid, pH 3; gradient (min/%B) 0/0 1/0 12.5/100 14/100 14.2/0 15/0. Particulars: stereoisomer not certain.
Turning to `COc1cc(C(=O)O)cc(OC)c1O` [Syringic acid], the LC retention time was 5.04 min.
In the case of `O=C(O)c1cc(O)ccc1O` [Gentisic acid], the LC retention time is 4.7 min.
Still for that read-out and setting: the value for `O=C(C=Cc1ccc(O)c(O)c1)OC1C(O)CC(O)(C(=O)O)CC1O` (stereo unspecified) [Cryptochlorogenic acid] was 4.63 min.
On the same count and under the same terms, the value for `O=C(OC1Cc2c(O)cc(O)cc2OC1c1cc(O)c(O)c(O)c1)c1cc(O)c(O)c(O)c1` (single isomer, unassigned; (-)) [(-)-Epigallocatechin gallate] was 5.08 min.
Same read-out and setting: the value for `O=C(O)C=Cc1ccccc1O` [o-Coumaric acid] was 6.29 min.
For `CC1OC(Oc2c(-c3ccc(O)c(O)c3)oc3cc(O)cc(O)c3c2=O)C(O)C(O)C1O` (stereo unspecified) [Quercitrin], the LC retention time was 6.01 min.

Another data set can be described thus: RP, Waters Atlantis T3, 100 × 2.1 mm, 3 µm, 40 °C, 0.3 mL/min, estimated dead time 0.73 min; A: water + 0.1% trifluoroacetic acid, pH 2; B: acetonitrile + 0.1% trifluoroacetic acid, pH 2; gradient (min/%B) 0/10 1/10 6/40 7/50 8/50 14/70 16/80 20/10 25/10. Particulars: stereoisomer not certain.
As for `COc1cc(C(=O)O)cc(OC)c1O` [Syringic acid], the LC retention time was 5.12 min.
Still for that read-out and setting: under `O=C(OC1Cc2c(O)cc(O)cc2OC1c1cc(O)c(O)c(O)c1)c1cc(O)c(O)c(O)c1` (single isomer, unassigned; (-)) [(-)-Epigallocatechin gallate] stands 6.14 min.

Another data set is described as follows: RP, Agilent InfinityLab Poroshell 120 EC-C18, 100 × 3 mm, 2.7 µm, 25 °C, 0.4 mL/min, estimated dead time 1.1 min; A: water + 0.1% formic acid, pH 3; B: acetonitrile + 0.1% formic acid, pH 3; gradient (min/%B) 0/5 10/25 20/40 24/90 25/90 26/5 30/5. The conditions noted are these: stereoisomer not certain.
On to `COc1cc(C(=O)O)cc(OC)c1O` [Syringic acid], for which the LC retention time was 6.44 min.
`O=C(O)c1cc(O)ccc1O` [Gentisic acid]: the LC retention time is 5.44 min.
Regarding `O=c1c(-c2ccc(O)cc2)coc2cc(O)ccc12` [Daidzein], the LC retention time is 12.9 min.
Take `O=c1cc(-c2ccccc2)oc2cc(O)cc(O)c12` [Chrysin]: the LC retention time was 22.2 min.

A short description of the next data set: RP, Agilent ZORBAX RRHD Eclipse Plus C18, 50 × 2.1 mm, 1.8 µm, 30 °C, 0.4 mL/min, estimated dead time 0.28 min; A: water + 0.1% formic acid, pH 3; B: acetonitrile + 0.1% formic acid, pH 3; gradient (min/%B) 0/1 5/10 8/25 9.1/99 10/99 12/99. The conditions noted are these: stereoisomer not certain.
On to `O=C(O)c1cc(O)ccc1O` [Gentisic acid], for which the LC retention time was 2.82 min.
Turning to `O=C(O)C=Cc1ccccc1O` [o-Coumaric acid], the LC retention time was 8.67 min.
On to `O=C(O)C1OC(Oc2c(-c3ccc(O)c(O)c3)oc3cc(O)cc(O)c3c2=O)C(O)C(O)C1O` (stereo unspecified) [Quercetin-3-O-glucuronide], for which the LC retention time is 8.38 min.

The nature of another data set: RP, Phenomenex Synergi Hydro-RP, 250 × 2 mm, 4 µm, 25 °C, 0.2 mL/min, estimated dead time 2.5 min; A: water + 0.1% formic acid, pH 3; B: acetonitrile + 0.1% formic acid, pH 3; gradient (min/%B) 0/0.5 7/0.5 12/12.5 25/16.3 47/35 48/65 50/65 50.1/0.5. The conditions noted are these: stereoisomer not certain.
With `COc1cc(C(=O)O)cc(OC)c1O` [Syringic acid], the LC retention time is 23.1 min.
`O=C(O)c1cc(O)ccc1O` [Gentisic acid]: the LC retention time was 19.9 min.
Consider `O=C(O)C=Cc1ccccc1O` [o-Coumaric acid], for which the LC retention time is 37.5 min.
The same measure, in the same setting: under `O=C(O)C=Cc1ccccc1` [Cinnamic acid-trans] stands 46.7 min; under `CC1OC(Oc2c(-c3ccc(O)c(O)c3)oc3cc(O)cc(O)c3c2=O)C(O)C(O)C1O` (stereo unspecified) [Quercitrin], 38.3 min.

A further data set can be described thus: RP, Waters ACQUITY UPLC HSS T3, 100 × 2.1 mm, 50 °C; A: water + 0.1% formic acid, pH 3; B: 30% methanol + 70% acetonitrile + 0.1% formic acid, pH 3; gradient (min/%B) 0/5 1/8 2/15 3/40 4/70 4.5/100 5/100 6.4/100 6.6/5 6.8/5 7/5. The conditions noted are these: stereoisomer not certain.
Consider `COc1cc(C(=O)O)cc(OC)c1O` [Syringic acid], for which the LC retention time was 3.33 min.
On the same count and under the same terms, the value for `O=C(O)C=Cc1ccccc1` [Cinnamic acid-trans] was 2.74 min.

A further data set in a line: RP, 150 × 2.1 mm, 2.6 µm, 40 °C, 0.35 mL/min, estimated dead time 0.94 min; A: water + 0.1% formic acid, pH 3; B: acetonitrile + 0.1% formic acid, pH 3; gradient (min/%B) 0/0 1/5 7/45 8.5/80 10.5/80 11/5 12/5. Particulars: stereoisomer not certain.
For `COc1cc(C(=O)O)cc(OC)c1O` [Syringic acid], the LC retention time was 4.88 min.
Same read-out and setting: under `O=C(O)c1cc(O)ccc1O` [Gentisic acid] stands 4.37 min; under `O=C(C=Cc1ccc(O)c(O)c1)OC1C(O)CC(O)(C(=O)O)CC1O` (stereo unspecified) [Cryptochlorogenic acid], 4.45 min.
On the same count and under the same terms, the value for `O=C(OC1Cc2c(O)cc(O)cc2OC1c1cc(O)c(O)c(O)c1)c1cc(O)c(O)c(O)c1` (single isomer, unassigned; (-)) [(-)-Epigallocatechin gallate] was 5.02 min.
As for `O=C(O)C=Cc1ccccc1O` [o-Coumaric acid], the LC retention time was 6.36 min.
`CC1OC(Oc2c(-c3ccc(O)c(O)c3)oc3cc(O)cc(O)c3c2=O)C(O)C(O)C1O` (stereo unspecified) [Quercitrin]: the LC retention time was 6.17 min.
